# In patent US8278345B2, “Inhibitors of glutaminyl cyclase” (Probiodrug AG, priority 2006, dated 2012):
# Target: hQC (Homo sapiens, UniProt Q16769)
# Assay: Inhibitor assay for glutaminyl cyclase activity (fluorometric, H-Gln-βNA / H-Gln-AMC)
# Type: biochemical
# Details: compound from preparative synthesis, purified; read-out: IC50 hQC
# How it was run: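 Ki values came from fitting progress curves to a competitive inhibition model; rapid screens used 4 mM inhibitor with substrate at KM. QC activity was read at 30 °C via auxiliary pyroglutamyl aminopeptidase releasing βNA (0.2 mM H-Gln-βNA, 0.2 M Tris pH 8.0, 20 mM EDTA) or AMC (0.05 M Tris pH 8.0, 5 mM EDTA).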
# Chain of hQC (Q16769 29-361): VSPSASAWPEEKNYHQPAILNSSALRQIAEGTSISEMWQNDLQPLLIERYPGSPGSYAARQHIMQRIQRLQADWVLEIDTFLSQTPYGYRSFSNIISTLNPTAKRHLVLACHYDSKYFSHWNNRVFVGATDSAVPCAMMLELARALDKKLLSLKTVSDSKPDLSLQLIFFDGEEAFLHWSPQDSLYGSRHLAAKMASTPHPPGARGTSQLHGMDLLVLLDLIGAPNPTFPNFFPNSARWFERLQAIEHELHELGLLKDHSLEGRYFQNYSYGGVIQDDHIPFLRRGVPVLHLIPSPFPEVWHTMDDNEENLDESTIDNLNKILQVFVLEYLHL
row,SMILES,IC50
1,"CCCCCC1=C(O)C(=O)N(CCCn2ccnc2)C1c1ccc(C)o1 (stereo not drawn) [Compound 191, 3-Hydroxy-1-(3-imidazol-1-yl-propyl)-5-(5-methyl-furan-2-yl)-4-pentyl-1,5-dihydro-pyrrol-2-one]",1750 nM
2,"CCCCCC1=C(O)C(=O)N(CCCn2ccnc2)C1c1ccc(OC)cc1 (stereo not drawn) [Compound 193, 3-Hydroxy-1-(3-imidazol-1-yl-propyl)-5-(4-methoxy-phenyl)-4-pentyl-1,5-dihydro-pyrrol-2-one]",1040 nM
3,"CCCCCC1=C(O)C(=O)N(CCCn2ccnc2)C1c1cccc(Cl)c1 (stereo not drawn) [Compound 216, 5-(3-Chloro-phenyl)-3-hydroxy-1-(3-imidazol-1-yl-propyl)-4-pentyl-1,5-dihydro-pyrrol-2-one]",236 nM
4,"CCCCCC1=C(O)C(=O)N(CCCn2ccnc2)C1c1ccc(O)cc1 (stereo not drawn) [Compound 218, 3-Hydroxy-5-(4-hydroxy-phenyl)-1-(3-imidazol-1-yl-propyl)-4-pentyl-1,5-dihydro-pyrrol-2-one]",613 nM

# The next lines start with the values.
row,IC50,SMILES
1,588 nM,"CCCCCC1=C(O)C(=O)N(CCCn2ccnc2)C1c1cccs1 (stereo not drawn) [Compound 210, 3-Hydroxy-1-(3-imidazol-1-yl-propyl)-4-pentyl-5-thiophen-2-yl-1,5-dihydro-pyrrol-2-one]"
2,1310 nM,"CCCCCC1=C(O)C(=O)N(CCCn2ccnc2)C1c1ccco1 (stereo not drawn) [Compound 213, 5-Furan-2-yl-3-hydroxy-1-(3-imidazol-1-yl-propyl)-4-pentyl-1,5-dihydro-pyrrol-2-one]"
3,1540 nM,"CCCCCC1=C(O)C(=O)N(CCCn2ccnc2)C1c1ccccc1F (stereo not drawn) [Compound 217, 5-(2-Fluoro-phenyl)-3-hydroxy-1-(3-imidazol-1-yl-propyl)-4-pentyl-1,5-dihydro-pyrrol-2-one]"
4,698 nM,"CCCCCC1=C(O)C(=O)N(CCCn2ccnc2)C1c1cccc(O)c1 (stereo not drawn) [Compound 219, 3-Hydroxy-5-(3-hydroxy-phenyl)-1-(3-imidazol-1-yl-propyl)-4-pentyl-1,5-dihydro-pyrrol-2-one]"

# Same assay, conditions: read-out: IC50
row,SMILES,IC50
1,"CCCCCC1=C(O)C(=O)N(CCCn2ccnc2)C1c1ccc(C)o1 (stereo not drawn) [Compound 191, 3-Hydroxy-1-(3-imidazol-1-yl-propyl)-5-(5-methyl-furan-2-yl)-4-pentyl-1,5-dihydro-pyrrol-2-one]",40 nM
2,"CCCCCC1=C(O)C(=O)N(CCCn2ccnc2)C1c1ccc(OC)cc1 (stereo not drawn) [Compound 193, 3-Hydroxy-1-(3-imidazol-1-yl-propyl)-5-(4-methoxy-phenyl)-4-pentyl-1,5-dihydro-pyrrol-2-one]",40 nM
3,"CCCCCC1=C(O)C(=O)N(CCCn2ccnc2)C1c1ccccc1O (stereo not drawn) [Compound 194, 3-Hydroxy-5-(2-hydroxy-phenyl)-1-(3-imidazol-1-yl-propyl)-4-pentyl-1,5-dihydro-pyrrol-2-one]",40 nM
4,"CCCCCC1=C(O)C(=O)N(CCCn2ccnc2)C1CCCCC (stereo not drawn) [Compound 196, 3-Hydroxy-1-(3-imidazol-1-yl-propyl)-4,5-dipentyl-1,5-dihydro-pyrrol-2-one]",40 nM
5,"CCCCCC1=C(O)C(=O)N(CCCn2ccnc2)C1c1ccc(CO)o1 (stereo not drawn) [Compound 198, 3-Hydroxy-5-(5-hydroxymethyl-furan-2-yl)-1-(3-imidazol-1-yl-propyl)-4-pentyl-1,5-dihydro-pyrrol-2-one]",40 nM
6,"CCCCCC1=C(O)C(=O)N(CCCn2ccnc2)C1c1ccccc1 (stereo not drawn) [Compound 199, 3-Hydroxy-1-(3-imidazol-1-yl-propyl)-4-pentyl-5-phenyl-1,5-dihydro-pyrrol-2-one]",40 nM
7,"CCCCCC1=C(O)C(=O)N(CCCn2ccnc2)C1C1CCC=CO1 (stereo not drawn) [Compound 200, 5-(3,4-Dihydro-2H-pyran-2-yl)-3-hydroxy-1-(3-imidazol-1-yl-propyl)-4-pentyl-1,5-dihydro-pyrrol-2-one]",40 nM
8,"CCCCCC1=C(O)C(=O)N(CCCn2ccnc2)C1c1c[nH]c2cc(C)ccc12 (stereo not drawn) [Compound 202, 3-Hydroxy-1-(3-imidazol-1-yl-propyl)-5-(6-methyl-1H-indol-3-yl)-4-pentyl-1,5-dihydro-pyrrol-2-one]",40 nM
9,"CCCCCC1=C(O)C(=O)N(CCCn2ccnc2)C1C(F)(F)F (stereo not drawn) [Compound 203, 3-Hydroxy-1-(3-imidazol-1-yl-propyl)-4-pentyl-5-trifluoromethyl-1,5-dihydro-pyrrol-2-one]",40 nM
10,"CCCCCC1=C(O)C(=O)N(CCCn2ccnc2)C1c1c[nH]c2ccccc12 (stereo not drawn) [Compound 204, 3-Hydroxy-1-(3-imidazol-1-yl-propyl)-5-(1H-indol-3-yl)-4-pentyl-1,5-dihydro-pyrrol-2-one]",40 nM
11,"CCCCCC1=C(O)C(=O)N(CCCn2ccnc2)C1c1ncc[nH]1 (stereo not drawn) [Compound 205, 3-Hydroxy-5-(1H-imidazol-2-yl)-1-(3-imidazol-1-yl-propyl)-4-pentyl-1,5-dihydro-pyrrol-2-one]",2200 nM
12,"CCCCCC1=C(O)C(=O)N(CCCn2ccnc2)C1Cc1ccccc1 (stereo not drawn) [Compound 206, 5-Benzyl-3-hydroxy-1-(3-imidazol-1-yl-propyl)-4-pentyl-1,5-dihydro-pyrrol-2-one]",400 nM
13,"CCCCCC1=C(O)C(=O)N(CCCn2ccnc2)C1c1c(O)ccc2ccccc12 (stereo not drawn) [Compound 207, 3-Hydroxy-5-(2-hydroxy-naphthalen-1-yl)-1-(3-imidazol-1-yl-propyl)-4-pentyl-1,5-dihydro-pyrrol-2-one]",3100 nM
14,"CCCCCC1=C(O)C(=O)N(CCCn2ccnc2)C1c1ccncc1 (stereo not drawn) [Compound 209, 3-Hydroxy-1-(3-imidazol-1-yl-propyl)-4-pentyl-5-pyridin-4-yl-1,5-dihydro-pyrrol-2-one]",40 nM
15,"CCCCCC1=C(O)C(=O)N(CCCn2ccnc2)C1CO (stereo not drawn) [Compound 211, 3-Hydroxy-5-hydroxymethyl-1-(3-imidazol-1-yl-propyl)-4-pentyl-1,5-dihydro-pyrrol-2-one]",400 nM
16,"CCCCCC1=C(O)C(=O)N(CCCn2ccnc2)C1C1CC1 (stereo not drawn) [Compound 212, 5-Cyclopropyl-3-hydroxy-1-(3-imidazol-1-yl-propyl)-4-pentyl-1,5-dihydro-pyrrol-2-one]",400 nM
17,"CCCCCC1=C(O)C(=O)N(CCCn2ccnc2)C1CCCC (stereo not drawn) [Compound 214, 5-Butyl-3-hydroxy-1-(3-imidazol-1-yl-propyl)-4-pentyl-1,5-dihydro-pyrrol-2-one]",400 nM
18,"CCCCCC1=C(O)C(=O)N(CCCn2ccnc2)C1CC (stereo not drawn) [Compound 215, 5-Ethyl-3-hydroxy-1-(3-imidazol-1-yl-propyl)-4-pentyl-1,5-dihydro-pyrrol-2-one]",1300 nM
19,"CCCCCC1=C(O)C(=O)N(CCCn2ccnc2)C1c1cccc(Cl)c1 (stereo not drawn) [Compound 216, 5-(3-Chloro-phenyl)-3-hydroxy-1-(3-imidazol-1-yl-propyl)-4-pentyl-1,5-dihydro-pyrrol-2-one]",40 nM
20,"CCCCCC1=C(O)C(=O)N(CCCn2ccnc2)C1c1ccc(O)cc1 (stereo not drawn) [Compound 218, 3-Hydroxy-5-(4-hydroxy-phenyl)-1-(3-imidazol-1-yl-propyl)-4-pentyl-1,5-dihydro-pyrrol-2-one]",40 nM
21,"CCC1=C(O)C(=O)N(CCCn2ccnc2)C1c1ccc(C)cc1 (stereo not drawn) [Compound 221, 4-Ethyl-3-hydroxy-1-(3-imidazol-1-yl-propyl)-5-p-tolyl-1,5-dihydro-pyrrol-2-one]",400 nM
22,"CCC/C=C/C1C(CC)=C(O)C(=O)N1CCCn1ccnc1 (stereo not drawn) [Compound 222, 4-Ethyl-3-hydroxy-1-(3-imidazol-1-yl-propyl)-5-(pent-1-enyl)-1,5-dihydro-pyrrol-2-one]",3100 nM
23,"CCCC1C(CC)=C(O)C(=O)N1CCCn1ccnc1 (stereo not drawn) [Compound 223, 4-Ethyl-3-hydroxy-1-(3-imidazol-1-yl-propyl)-5-propyl-1,5-dihydro-pyrrol-2-one]",2200 nM
24,"CCC1=C(O)C(=O)N(CCCn2ccnc2)C1c1cc[nH]n1 (stereo not drawn) [Compound 224, 4-Ethyl-3-hydroxy-1-(3-imidazol-1-yl-propyl)-5-(1H-pyrazol-3-yl)-1,5-dihydro-pyrrol-2-one]",1300 nM
25,"CCC1=C(O)C(=O)N(CCCn2ccnc2)C1C(O)CO (stereo not drawn) [Compound 225, 5-(1,2-Dihydroxy-ethyl)-4-ethyl-3-hydroxy-1-(3-imidazol-1-yl-propyl)-1,5-dihydro-pyrrol-2-one]",40 nM
26,"CCC1=C(O)C(=O)N(CCCn2ccnc2)C1c1ccc(C)o1 (stereo not drawn) [Compound 227, 4-Ethyl-3-hydroxy-1-(3-imidazol-1-yl-propyl)-5-(5-methyl-furan-2-yl)-1,5-dihydro-pyrrol-2-one]",2200 nM
27,"CCC1=C(O)C(=O)N(CCCn2ccnc2)C1c1ccc2[nH]ccc2c1 (stereo not drawn) [Compound 228, 4-Ethyl-3-hydroxy-1-(3-imidazol-1-yl-propyl)-5-(1H-indol-5-yl)-1,5-dihydro-pyrrol-2-one]",40 nM
28,"CCC1=C(O)C(=O)N(CCCn2ccnc2)C1c1ccccc1O (stereo not drawn) [Compound 230, 4-Ethyl-3-hydroxy-5-(2-hydroxy-phenyl)-1-(3-imidazol-1-yl-propyl)-1,5-dihydro-pyrrol-2-one]",40 nM

# The remaining molecules from weak to strong by IC50, led by results:
row,IC50,SMILES
1,3100 nM,"CCC1=C(O)C(=O)N(CCCn2ccnc2)C1/C=C/C(C)C (stereo not drawn) [Compound 226, 4-Ethyl-3-hydroxy-1-(3-imidazol-1-yl-propyl)-5-(3-methyl-but-1-enyl)-1,5-dihydro-pyrrol-2-one]"
2,2200 nM,"CCC1=C(O)C(=O)N(CCCn2ccnc2)C1c1cc(Cl)cc(Cl)c1O (stereo not drawn) [Compound 220, 5-(3,5-Dichloro-2-hydroxy-phenyl)-4-ethyl-3-hydroxy-1-(3-imidazol-1-yl-propyl)-1,5-dihydro-pyrrol-2-one]"
3,1300 nM,"CCCCCC1=C(O)C(=O)N(CCCn2ccnc2)C1C1=CCCCC1 (stereo not drawn) [Compound 201, 5-Cyclohex-1-enyl-3-hydroxy-1-(3-imidazol-1-yl-propyl)-4-pentyl-1,5-dihydro-pyrrol-2-one]"
4,400 nM,"CCCCCC1=C(O)C(=O)N(CCCn2ccnc2)C1c1ccccn1 (stereo not drawn) [Compound 208, 3-Hydroxy-1-(3-imidazol-1-yl-propyl)-4-pentyl-5-pyridin-2-yl-1,5-dihydro-pyrrol-2-one]"
5,40 nM,"CCCCCC1=C(O)C(=O)N(CCCn2ccnc2)C1c1ccc2[nH]ccc2c1 (stereo not drawn) [Compound 192, 3-Hydroxy-1-(3-imidazol-1-yl-propyl)-5-(1H-indol-5-yl)-4-pentyl-1,5-dihydro-pyrrol-2-one]"
6,40 nM,"CCCCCC1=C(O)C(=O)N(CCCn2ccnc2)C1c1ccc(C)c(C)c1 (stereo not drawn) [Compound 195, 5-(3,4-Dimethyl-phenyl)-3-hydroxy-1-(3-imidazol-1-yl-propyl)-4-pentyl-1,5-dihydro-pyrrol-2-one]"
7,40 nM,"CCCCCC1=C(O)C(=O)N(CCCn2ccnc2)C1C (stereo not drawn) [Compound 197, 3-Hydroxy-1-(3-imidazol-1-yl-propyl)-5-methyl-4-pentyl-1,5-dihydro-pyrrol-2-one]"
8,40 nM,"CCCCCC1=C(O)C(=O)N(CCCn2ccnc2)C1c1cccs1 (stereo not drawn) [Compound 210, 3-Hydroxy-1-(3-imidazol-1-yl-propyl)-4-pentyl-5-thiophen-2-yl-1,5-dihydro-pyrrol-2-one]"
9,40 nM,"CCCCCC1=C(O)C(=O)N(CCCn2ccnc2)C1c1ccco1 (stereo not drawn) [Compound 213, 5-Furan-2-yl-3-hydroxy-1-(3-imidazol-1-yl-propyl)-4-pentyl-1,5-dihydro-pyrrol-2-one]"
10,40 nM,"CCCCCC1=C(O)C(=O)N(CCCn2ccnc2)C1c1ccccc1F (stereo not drawn) [Compound 217, 5-(2-Fluoro-phenyl)-3-hydroxy-1-(3-imidazol-1-yl-propyl)-4-pentyl-1,5-dihydro-pyrrol-2-one]"
11,40 nM,"CCCCCC1=C(O)C(=O)N(CCCn2ccnc2)C1c1cccc(O)c1 (stereo not drawn) [Compound 219, 3-Hydroxy-5-(3-hydroxy-phenyl)-1-(3-imidazol-1-yl-propyl)-4-pentyl-1,5-dihydro-pyrrol-2-one]"
12,40 nM,"CCC1=C(O)C(=O)N(CCCn2ccnc2)C1c1ccc(OC)cc1 (stereo not drawn) [Compound 229, 4-Ethyl-3-hydroxy-1-(3-imidazol-1-yl-propyl)-5-(4-methoxy-phenyl)-1,5-dihydro-pyrrol-2-one]"
